Data published in patent US9562057B2, “(Thieno[2,3-b][1,5]benzoxazepin-4-yl)piperazin-1-yl compounds as dual activity H1 inverse agonists/5-HT2A antagonists” (Eli Lilly and Company, priority 2013, dated 2017).
Structures can show the parent of a compound that is named as a salt.

Columns and labels:
[1] = tested on: native GABAA receptors; test: GABAA antagonism using native receptors in primary neuronal cultures (FLIPR calcium flux); type: cell-based; conditions: against 10 μM GABA, rat cortical embryonic neurons
Experimental: Activity of compounds on native GABAA receptors is evaluated by monitoring calcium fluxes using a 96 well format FLIPR® system (Fluorometric Imaging Plate Reader (FLIPR®, Molecular Devices). Briefly, cortical embryonic neurons are dissociated from E18 rat embryos and plated at optimum density into black-walled, transparent bottom poly-D-lysine coated 96-well FLIPR® plates. After loading the cells with a calcium sensitive dye (Fluo4-AM, Molecular Devices), the cells are bathed in a solution containing low chloride (chloride replaced by gluconate). Under these conditions activation of GABAA receptors causes an efflux of chloride ions (in the direction of the chemical gradient), which results in membrane depolarization and consequently activation of voltage gated calcium channels (VGCCs). Calcium influx through VGCCs is recorded and analysed offline using the FLIPR® system. For a pharmacological validation of the assay, concentration response curves (CRC) are recorded for the standard agonist (GABA) and standard antagonist (Gabazine). […]
The antagonist effects of compounds are quantified using 10-point dose response curves by comparing the peak fluorescent responses to the agonist GABA in the presence and absence of compound. […] Antagonist effects are calculated as a percent of the assay window. […]

[2] = biological target: Adrenergic alpha1A (Homo sapiens, UniProt P35348); test: Adrenergic alpha1A binding
Description: Further, the compounds of the invention may be tested in binding assays and functional activity assays by well known methods for other physiologically important receptors such as, but not limited to, the hERG channel, other serotonin receptors (specifically 5-HT1B and 5-HT1D receptors, lack of agonist activity at 5-HT2B receptors, 5-HT2C, 5-HT5, 5-HT6, and 5-HT7 receptors), dopaminergic receptors (specifically D1, D2, and D3), GABAA receptors, adrenergic receptors and monoamine transporters.

Sequence of Adrenergic alpha1A (P35348 whole entry): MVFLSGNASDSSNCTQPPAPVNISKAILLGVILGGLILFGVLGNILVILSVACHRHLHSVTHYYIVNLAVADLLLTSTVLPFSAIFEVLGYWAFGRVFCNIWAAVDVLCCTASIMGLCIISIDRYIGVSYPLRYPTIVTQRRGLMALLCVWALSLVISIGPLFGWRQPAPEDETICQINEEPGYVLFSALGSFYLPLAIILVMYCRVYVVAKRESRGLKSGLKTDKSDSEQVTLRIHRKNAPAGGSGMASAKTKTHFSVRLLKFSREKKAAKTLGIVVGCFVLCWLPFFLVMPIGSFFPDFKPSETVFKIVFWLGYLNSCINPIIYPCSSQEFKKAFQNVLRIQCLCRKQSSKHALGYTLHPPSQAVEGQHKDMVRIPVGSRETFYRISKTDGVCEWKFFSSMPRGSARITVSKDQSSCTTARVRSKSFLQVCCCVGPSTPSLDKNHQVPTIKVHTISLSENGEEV

## Cc1ccc2c(c1)Oc1sc(C3CC3)cc1C(N1CCN(CC(C)(C)C(=O)O)CC1)=N2 [Example 2, 3-[4-(2-Cyclopropyl-8-methyl-thieno[2,3-b][1,5]benzoxazepin-4-yl)piperazin-1-yl]-2,2-dimethyl-propanoic acid dihydrochloride]
[1]
  IC50: > 100 µM
[2]
  Ki: 4.62 µM
